From US11596620B2, “Formulations with reduced oxidation” (Genentech, Inc., priority 2013, dated 2023)
Entries after “also recorded” stand apart in the source; their conditions may differ.

Columns and labels:
[1] = Cyclic voltammetry (CV) screening assay, oxidation potential; type: physicochemical
Experimental: The oxidation/reduction characteristics of the compounds were investigated. Several compounds, including L-Trp and derivatives, were evaluated for the protection of Trp oxidation in proteins using cyclic voltammetry (CV) and rank ordered based on their oxidation potentials (Table 2). Specifically, the candidate antioxidants were dissolved in deionized water and then added to a 0.2 M lithium perchlorate electrolyte solution. […] Solutions were scanned from −0.10 V to +1.50 V at a scan rate of either 100 or 500 mV/sec. The analytical cell was purged for four minutes with nitrogen before scanning of each antioxidant solution. The input was a linear scan of the potential of a working electrode, and the output was measurement of the resulting current. […] Redox reactions were characterized by sharp increases or decreases in current (peaks). The potential at which an oxidation reaction occurred was referred to as the anodic peak potential (or oxidation potential), and the potential at which a reduction occurred was referred to as is the cathodic peak (or reduction) potential.

[2] = Photosensitivity screening assay (H2O2 by Amplex Ultra Red after light exposure); type: physicochemical; settings: for (H2O2 produced by Compound)/(H2O2 produced by L-Trp) / H2O2 produced compared to L-Trp, in words: 1 mM in 20 mM histidine acetate pH 5.5, four hours of light at 250 W/m^2; for H2O2 produced in comparison to L-Trp: 1 mM, four hours of light at 250 W/m^2, times more H2O2 than L-Trp
Experimental: As a screening tool, antioxidant candidates were exposed to light for four hours at 250 W/m^2 and the resulting H2O2 formation was quantified by the Amplexassay. Specifically, antioxidants were prepared to 1 mM in 20 mM histidine acetate buffer at pH 5.5. The 1 mM antioxidant solutions were aliquoted into glass vials (2 mL/glass vial) and exposed to four hours of light at 250 W/m^2 in an Atlas SunTest CPS+ Xenon Test Instrument (Chicago, Ill.). Total UV dose was 90 watt-hours/square meter and total visible dose was 0.22 million lux hours over the 4-hour period. Control vials were wrapped in aluminum foil and treated similarly. The amount of hydrogen peroxide generated after exposure to light was measured using the Amplex® Ultra Red Assay (Invitrogen, Carlsbad, Calif.) following the manufacturer's recommended procedure. On addition of horseradish peroxidase (HRP), the dye reacted 1:1 stoichiometrically with H2O2, resulting in the production of fluorescent oxidation product resorufin. In this study, fluorescence readings were obtained using a Spectra Max M2 Micro-plate Reader (Molecular Devices, Sunnyvale, Calif.) with excitation and emission set at 560 nm and 590 nm, respectively. Final H2O2 concentrations were determined using a standard curve ranging from 0 μm to 20 μm.

[3] = anodic peak potential, glassy carbon working electrode, 0.2M lithium perchlorate
[4] = cyclic voltammetry, 0.2 M lithium perchlorate

Row | Oxidation Potential [1, 3] [V vs Ag/AgCl] | Oxidation Potential [1, 4] [V vs Ag/AgCl] | H2O2 produced in comparison to L-Trp [2] [times] | SMILES | (H2O2 produced by Compound)/(H2O2 produced by L-Trp) [2] | Oxidation potential relative to L-Trp, in words ([1]; cyclic voltammetry) | H2O2 produced compared to L-Trp, in words [2] | H2O2 produced compared to L-Trp, in words ([2]; listed as tryptamine)
1 | 0.410 | 0.410 |  | Nc1ccc2[nH]cc(CC(N)C(=O)O)c2c1 (racemic) [5-Amino-DL-Trp, 5-amino-DL-tryptophan] | 0.29 |  |  | 
2 | 0.890 | 0.890 |  | COc1ccc2[nH]cc(CC(N)C(=O)O)c2c1 (racemic) [5-Methoxy-DL-Trp, 5-methoxy-DL-tryptophan] | 1.05 |  |  | 
3 | 1.055 |  |  | NC(Cc1c[nH]c2ccc([N+](=O)[O-])cc12)C(=O)O (racemic) [5-nitro-DL-tryptophan] |  | higher oxidation potential than L-Trp |  | 
4 |  |  |  | Oc1cccc2[nH]ccc12 [4-Hydroxyindole] | 0.00 |  |  | 
5 | 0.965 |  |  | N[C@@H](Cc1c[nH]c2ccc(F)cc12)C(=O)O [5-Fluoro-L-Trp, 5-fluoro-L-tryptophan] | 0.71 | higher oxidation potential than L-Trp |  | 
6 |  |  |  | Nc1ccc(O)cc1C(=O)O [5-Hydroxyanthranilic Acid] | 0.44 |  | half as much H2O2 | 
7 |  |  |  | O=C(O)c1cc(O)ccc1O [5-Hydroxysalicylic Acid] | 0.84 |  | behaved like L-Trp | 
8 |  |  |  | O=C(O)c1cc2cccc(O)c2[nH]1 [7-Hydroxyindole-2-Carboxylic Acid] | 0.15 |  |  | 
9 |  |  |  | Nc1ccccc1C(=O)O [Anthranilic Acid] | 2.50 |  | twice as much H2O2 | 
10 |  |  |  | c1ccc2[nH]ccc2c1 [Indole] | 0.95 | significantly lower oxidation potential than L-Trp | behaved similarly to L-Trp | 
11 | 1.040 |  |  | Nc1ccccc1C(=O)C[C@H](N)C(=O)O [L-Kynurenine, L-kynurenine] | 0.20 | higher oxidation potential than L-Trp | about one fifth | 
12 | 0.730 |  |  | COc1ccc2[nH]cc(CCNC(C)=O)c2c1 [Melatonin (N-Acetyl-5-Methoxytryptamine), N-Acetyl-5-Methoxytryptamine] | 0.28 |  | less than a third | 
13 | 0.875 |  |  | CC(=O)N[C@@H](Cc1c[nH]c2ccccc12)C(=O)O [N-Acetyl-L-Trp, N-acetyl-L-tryptophan] | 0.31 |  |  | 
14 |  |  | 5 | Cc1ncc(CO)c(CO)c1O [Pyridoxine] | 5.16 |  |  | 
15 |  |  | 123 | Cc1c(C)c2c(c(C)c1O)CCC(C)(C(=O)O)O2 (stereo not shown) [Trolox] | 122.75 |  |  | 

Row | SMILES | Oxidation Potential [1, 3] [V vs Ag/AgCl] | Oxidation Potential [1, 4] [V vs Ag/AgCl] | H2O2 produced in comparison to L-Trp [2] [times] | (H2O2 produced by Compound)/(H2O2 produced by L-Trp) [2] | Oxidation potential relative to L-Trp, in words ([1]; cyclic voltammetry) | H2O2 produced compared to L-Trp, in words [2] | H2O2 produced compared to L-Trp, in words ([2]; listed as tryptamine)
16 | O=C(O)Cc1c[nH]c2ccc(O)cc12 [5-Hydroxyindole-3-Acetic Acid] | 0.535 |  |  | 0.11 |  |  | 
17 | O=C(O)Cc1c[nH]c2ccccc12 [Indole-3-Acetic Acid] | 0.948 |  |  | 2.40 | higher oxidation potential than L-Trp | twice as much H2O2; also recorded: two times more H2O2 | 
18 | NCCc1c[nH]c2ccccc12 [Tryptamine] | 1.010 |  |  | 0.53 | higher oxidation potential than L-Trp | about half as much H2O2 | two times less
